The values that follow are results of earlier work, collected in patent publication US20100095963A1, “PHARMACEUTICAL COMPOSITIONS” (Schering Corporation, priority 2002, published 2010).

Experiment in series [1]: not given
The source holds these as a separate data set.

Consider `C[C@@H]1C[C@H]2[C@@H]3CCC4=CC(=O)C=C[C@]4(C)[C@@]3(Cl)[C@@H](O)C[C@]2(C)[C@@]1(OC(=O)c1ccco1)C(=O)CCl` [Mometasone furoate, 9,21-Dichloro-11(beta),17-dihydroxy-16(alpha)-methylpregna-1,4-diene-3,20-dione 17-(2 furoate)], for which, for the setting “acetone”, the solubility in acetone entry is on record as “soluble”. The solubility in chloroform entry (chloroform) is on record as “soluble”. Also, the solubility in ethanol entry (ethanol) is given as “slightly soluble”. Further, the solubility in isopropanol result (isopropanol) is given as “slightly soluble”. Besides, the solubility in methanol entry (methanol) is listed as “slightly soluble”. Also, the solubility in tetrahydrofuran result (tetrahydrofuran) is listed as “freely soluble”. Moreover, the solubility in water result (water) was “practically insoluble”. In addition, the “partition coefficient between octanol and water” value in series [1] is listed as “greater than 5000”.
